Literature values in patent US20170202789A1, “METHODS AND RELATED COMPOSITIONS FOR IMPROVED DRUG BIOAVAILABILITY AND DISEASE TREATMENT” (priority 2014, published 2017).

Columns and labels:
[1] = caffeine 160 mg drink prior to cycling time trial, p<0.01
[2] = co-administration with carbohydrate drink, depending on dose and frequency
[3] = 3 mg/kg one hour prior to running, p<0.05
[4] = 400 mg, untrained individuals
[5] = 6 mg/kg + maintenance doses, with 7% carbohydrate drink
[6] = doses of 6-9 mg/kg
[7] = test system: Na/K ATPase

| Structure (SMILES) | reduction of time to complete the trial [1] [%] | increase in performance [2] | improvement in performance compared to placebo [3] [%] | effect on bench press, leg extension strength or cycle ergometry [4] | difference in performance with versus without caffeine [5] | cognitive function before exercise (energy drink with caffeine, low dose) | cognitive function after exercise (low and medium dose caffeine containing energy drinks) | adverse effects [6] | concentration at which formation of EP is inhibited [7] |
| --- | --- | --- | --- | --- | --- | --- | --- | --- | --- |
| Cn1c(=O)c2c(ncn2C)n(C)c1=O [caffeine] | ~5 | 2-3% | 1.2 | did not have any positive effects | No differences were noted | improved long term memory | improved all cognitive tests | jitters, increased heart rate, and a diminution in exercise performance |  |
| [O]=[V]([O-])([O-])[O-] [vanadate] |  |  |  |  |  |  |  |  | less than 1 micromolar |
